# According to US6448405B1, “Steroid receptor modulator compounds and methods” (Ligand Pharmaceuticals Incorporated, priority 1994, dated 2002):
# Molecular target: T1, human progesterone receptor A form (PR-A) (Homo sapiens, UniProt P06401)
# T1 sequence (P06401 1-769 isoform P06401-2): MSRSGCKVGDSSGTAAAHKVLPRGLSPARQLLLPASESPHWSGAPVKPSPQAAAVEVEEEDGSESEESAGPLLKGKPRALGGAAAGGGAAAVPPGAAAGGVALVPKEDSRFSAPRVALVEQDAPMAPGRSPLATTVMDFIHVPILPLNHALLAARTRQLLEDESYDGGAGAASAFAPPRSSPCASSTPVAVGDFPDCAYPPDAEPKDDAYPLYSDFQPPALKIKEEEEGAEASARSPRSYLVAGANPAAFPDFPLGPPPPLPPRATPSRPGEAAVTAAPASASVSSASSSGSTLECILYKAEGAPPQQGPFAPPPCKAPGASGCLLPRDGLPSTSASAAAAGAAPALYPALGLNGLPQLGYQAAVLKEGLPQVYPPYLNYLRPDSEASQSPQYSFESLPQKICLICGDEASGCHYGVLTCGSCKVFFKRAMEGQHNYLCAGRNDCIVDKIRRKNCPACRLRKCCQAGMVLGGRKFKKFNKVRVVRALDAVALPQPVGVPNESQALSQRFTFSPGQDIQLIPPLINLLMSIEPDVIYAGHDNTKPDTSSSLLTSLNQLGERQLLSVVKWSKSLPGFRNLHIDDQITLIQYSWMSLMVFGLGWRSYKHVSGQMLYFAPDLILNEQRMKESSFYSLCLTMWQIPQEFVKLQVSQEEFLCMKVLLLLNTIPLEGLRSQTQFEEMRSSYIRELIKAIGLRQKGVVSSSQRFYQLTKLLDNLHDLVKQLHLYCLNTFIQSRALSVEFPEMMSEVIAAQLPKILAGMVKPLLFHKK
# Experiment: PR binding assay, baculovirus extract, [3H] progesterone
# Conditions: read-out: PR Binding Ki
compound,measurement,value
"CC1=CC(C)(C)Nc2ccc3c(c21)C(c1ccccc1)Oc1ccccc1-3 (racemic) [Compound 161, (R/S)-1,2-Dihydro-2,2,4-trimethyl-5-phenyl-5H-chromeno[3,4-f]quinoline]",Ki,3 nM
"CC1=CC(C)(C)Nc2ccc3c(c21)C(c1cccc(C(F)(F)F)c1)Oc1ccccc1-3 (racemic) [Compound 195, (R/S) 1,2-Dihydro-2,2,4-trimethyl-5-[3-(trifluoromethyl)phenyl]-5H-chromeno[3,4-f]quinoline]",Ki,3 nM
